Experimental data as given in US7605227B2, “Melanoma antigen peptide analogues” (MannKind Corporation, priority 2005, dated 2009).
“Also recorded” adds a separate entry of the source. One block for each compound: values may come before it. Square brackets hold non-standard residues; d marks the D form. Ends that are not written are not given here. Nle = CCCC[C@H](N)C(=O)O; Nva = CCC[C@H](N)C(=O)O

How the values were obtained:
[1] = tested on: 51Cr-labeled target cells (T2 cells); test: Plasmid prime, SSX-2 peptide boost, ex vivo 51Cr cytotoxicity against T2 target cells; type: in vivo, mice; details: peptide as boost agent after plasmid; 51Cr T2 targets
Procedure: Three groups of mice (n=4) were immunized with a plasmid expressing SSX-241-49 natural epitope by direct inoculation into the inguinal lymph nodes with 25 μg in 25 μl of PBS/each lymph node at day 0, 3, 14 and 17. This was followed by two additional peptide boosts (similar amount) at day 28 and 31. One week after the boost, splenocytes were stimulated ex vivo with SSX-241-49 natural peptide and tested against ^51Cr-labeled target cells (T2 cells) at various E:T ratios (FIG. 8). […] This correlated with the binding and stability parameters determined by ex vivo experimentation.

624.38 melanoma cells = test: Plasmid prime, SSX-2 peptide boost, ex vivo cytotoxicity against human tumor cells; type: in vivo, mice; details: ex vivo after boost
Procedure: Eight groups of mice (n=4) were immunized with plasmid expressing SSX-241-49 natural epitope by direct inoculation into the inguinal lymph nodes with 25 μg in 25 μl of PBS/each lymph node at day 0, 3, 14 and 17. This was followed by two additional peptide boosts (similar amount) at day 28 and 31, using a negative control peptide (Melan A 26-35 “EAA”), natural peptide or analogs as shown in FIG. 9.

[2] = tested on: target cells coated with natural peptide; test: Plasmid prime, SSX-2 peptide boost, in vivo cytotoxicity (CFSE); set-up: species or system HHD mice; details: spleen and blood; targets coated with 20 μg/ml and 1 μg/ml natural peptide
Procedure: Eight groups of mice (n=4) were immunized with plasmid expressing SSX-241-49 natural epitope, by direct inoculation into the inguinal lymph nodes with 25 μg in 25 μl of PBS/each lymph node at day 0, 3, 14 and 17. This was followed by two additional peptide boosts (similar amount) at day 28 and 31, using a negative control peptide (Melan A 26-35 “EAA”), natural peptide or analogs as shown in FIG. 9.
To evaluate the in vivo response against natural peptide, splenocytes were isolated from littermate control HHD mice and incubated with 20 μg/mL or 1 μg/ml of natural peptide for 2 hours. These cells were then stained with CFSE^hi fluorescence (4.0 μM or 1 μM for 15 minutes) and intravenously co-injected into immunized mice with an equal number of control splenocytes stained with CFSE^lo fluorescence (0.4 μM). Eighteen hours later the specific elimination of target cells was measured by removing spleen and PBMC from challenged animals and measuring CFSE fluorescence by flow cytometry. The relative depletion of the populations corresponding to peptide loaded splenocytes was calculated relative to the control (unloaded) population and expressed as % specific lysis. FIGS. 10 (spleen) and 11 (blood) show the in vivo cytotoxicity elicited by the regimens described in FIG. 7.

[3] = tested on: T cell lines against a natural (non-mutated) epitope (SSX-241-49); test: Cross-reactivity and functional avidity: IFN-gamma from T cell lines against natural SSX-2 41-49 epitope; type: cell-based, HHD transgenic mice; details: IFN-gamma from T cell line raised against native SSX-2 41-49; native = 1, lower = more active;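 further: peptide analogs tested ex vivo with competent APCs, IFN-gamma in supernatant measured by ELISA, readouts include minimal triggering concentration, peak effect and concentration at peak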
HLA-A*0201 [4] = molecular target: T1, HLA-A*0201 (Homo sapiens, UniProt P04439, D140Y/D185E/D98H/E176V/E277Q/G131W/G231S/I119V/I121R/I166T/I218V/L300P/L318F/N151K/N90K/P208A/P217A/Q86G/Q94H/R138H/R169H/T345S); test: Peptide binding using T2 cells (SSX-2 41-49 analogs); details: half maximal binding of wild-type peptide relative to analog; native = 1.0
Description: Thus, at limiting concentrations of peptide, it is a measurement of Kon mostly and at saturation levels of peptide it is a measurement of both Kon and Koff.

HLA-A*0201 [5] = molecular target: T1, HLA-A*0201; test: iTopia affinity assay (ED50); type: binding; details: PRAME425-433 analogs
Description: Avidin-coated microtiter plates containing class I monomer loaded with a so-called placeholder peptide were used to evaluate peptide binding, affinity and off-rate. The monomer-coated plates were supplied as part of the iTopia Epitope Discovery System Kit (Beckman Coulter, Inc., San Diego, Calif., USA). Assay buffers, anti-MHC-FITC mAb and beta2-microglobulin and control peptides were also supplied with the kits.
Plates were read on the fluorometer. Sigmoidal dose response curves were generated using Prism software.

[6] = tested on: target cells coated with wild-type peptide; test: Plasmid prime, NY-ESO-1 peptide boost, in vivo cytotoxicity (CFSE); set-up: species or system HHD mice; details: plasmid entrain, peptide amplify; targets coated with wild-type NY-ESO-1 peptide
Procedure: These cells were then stained with CFSE^hi and CFSE^med fluorescence (4.0 μM or 1 μM, respectively, for 15 minutes) and intravenously co-injected into immunized mice with an equal number of control splenocytes stained with CFSE^lo fluorescence (0.4 μM). Eighteen hours later the specific elimination of target cells was measured by removing the spleens and PBMC from challenged animals and measuring CFSE fluorescence by flow cytometry. The relative depletion of the populations corresponding to peptide loaded splenocytes was calculated relative to the control (unloaded) population and expressed as % specific lysis.

[7] = tested on: splenocytes stimulated with wild-type peptide NY-ESO-1157-165; test: NY-ESO-1 boost, ex vivo IFN-gamma production by splenocytes (ELISA); type: in vivo, mice; details: 10 μM wild-type peptide, 3 and 6 days
Description: Supernatants were harvested and the concentration of IFN-γ measured by ELISA.

[8] = tested on: T cell line specific for the native epitope (PRAME425-433); test: Cross-reactivity of PRAME425-433 analogs: IFN-gamma from native-epitope-specific T cell line; type: cell-based
Procedure: The analogs listed in FIGS. 26-28 were tested for various properties such as improved affinity and stability of binding, cross-reactivity with the native epitope, and immunogenicity as follows in Examples 40-48. […] The observed affinities of the analogs are reported as % binding (compared to the positive control) and ED50, and stability of binding as half time of dissociation. Cross reactivity with the native epitope was assessed by using the analog peptides to stimulate IFN-gamma secretion from a T cell line specific for the native epitope, essentially as described in Example 6. The data shown in FIGS. 26-28 were generated by stimulating with analog peptide at approximately 0.3 μM. […] In some cases, the reported values are the average of two determinations.

[9] = tested on: PRAME+ A2+ 624.38 melanoma cells; test: PRAME immunization, ex vivo cytotoxicity against human tumor cells; type: in vivo, HHD transgenic mice
Procedure: This was followed by two peptide boosts (2.5 μg) at day 28 and 31, with the analog L426Nva L433Nle.

[10] = tested on: splenocytes stimulated with native peptide; test: pCTLR2 prime, PRAME peptide boost, ex vivo IFN-gamma ELISA; type: in vivo, HHD transgenic mice; details: 2.5 μg peptide boost, 10 μg/ml native peptide, 48 hours
[11] = tested on: PRAME425-433-specific T cells; test: pCTLR2 prime, PRAME peptide boost, tetramer/CD8 co-staining; type: in vivo, HHD transgenic mice; details: versus boost with negative control peptide
[12] = tested on: native epitope coated cells; test: pCTLR2 prime, PRAME peptide boost, in vivo cytotoxicity (CFSE); set-up: species or system HHD transgenic mice
624.38 cells = test: pSEM prime, Tyrosinase peptide boost, ex vivo cytotoxicity against human tumor cells; type: in vivo, HHD transgenic mice
Procedure: HHD transgenic mice (n=4/group) were immunized (according to the general protocol in FIG. 40) with plasmid (pSEM) expressing the Tyrosinase369-377 epitope by direct inoculation into the inguinal lymph nodes of 25 μg of plasmid in 25 μl of PBS per lymph node at day 0, 3, 14 and 17. […] One week after the boost, splenocytes were stimulated ex vivo with the native Tyrosinase369-377 peptide and assayed against ^51Cr-labeled human tumor cells (624.38 cells) at various E:T ratios. […] Together with the preceding example, this observation illustrates the usefulness of complementing more stringent assays (in vivo cytotoxicity and tetramer staining) with more sensitive assays (ex vivo cytotoxicity after in vitro stimulation) to outline potentially useful analogs.

Compound: CC[C@H](C)[C@H](NC(=O)[C@H](CCCCN)NC(=O)[C@H](CCC(=O)O)NC(=O)[C@H](CO)NC(=O)[C@@H](NC(=O)[C@@H](N)CCCCN)C(C)C)C(=O)N[C@@H](Cc1ccccc1)C(=O)N[C@@H](Cc1ccc(O)cc1)C(=O)N[C@H](C(=O)O)C(C)C [SSX2 41-49 (A42V)]
response against target cells expressing the natural peptide [1]: higher response against target cells expressing the natural peptide
cytotoxicity against human tumor cells, in words (624.38 melanoma cells): increased cytotoxicity against human tumor cells
in vivo cytotoxicity (% specific lysis), in words [2]: increased activity relative to the natural peptide
Cross-reactivity and fct avidity (native to analogs)* [3]: 0.03

Relative affinity (1/RA) (HLA-A*0201 [4]): 1.6
Compound: CC[C@H](C)[C@H](NC(=O)[C@H](Cc1ccc(O)cc1)NC(=O)[C@H](Cc1ccccc1)NC(=O)[C@@H](NC(=O)[C@H](CCCCN)NC(=O)[C@H](CCC(=O)O)NC(=O)[C@H](CO)NC(=O)[C@@H](NC(=O)[C@@H](N)Cc1ccccc1)C(C)C)[C@@H](C)CC)C(=O)O [SSX2 41-49 (K41F, A42V, V49I)]
cytotoxicity against human tumor cells, in words (624.38 melanoma cells): increased cytotoxicity against human tumor cells
Cross-reactivity and fct avidity (native to analogs)* [3]: 0.3

ED50 change relative to native peptide (HLA-A*0201 [5]; printed as reduced / less (lower affinity)): more than 10 fold
Compound: Ala substitution: PRAME425-433 analog with Ala at the PΩ anchor position (SLLQHLIGA; UniProt P78395 425-433, looked up, variant L433A)

Relative affinity (1/RA) (HLA-A*0201 [4]): 1.5
Compound: FASEKIFYV [SSX2 41-49 (K41F)]
in vivo cytotoxicity (% specific lysis), in words [2]: increased activity relative to the natural peptide
Cross-reactivity and fct avidity (native to analogs)* [3]: 0.3

Compound: L158V C165V: NY-ESO-1 157-165 analog, L158V and C165V (SVLMWITQV; UniProt P78358 157-165, looked up, variant L158V C165V)
in vivo cytotoxicity (% specific lysis), in words [6]: effect in the same range with wild-type peptide or the C165V mutant
IFN-gamma production upon ex vivo re-stimulation, in words [7]: increased amounts of IFN-gamma

Compound: Lys P1 analog: PRAME425-433 analog with Lys for Ser at P1 (KLLQHLIGL)
IFN-γ elicited, % of the native peptide ([8]; analog peptide at approximately 0.3 μM): 40%

Compound: S157F L158V C165V: NY-ESO-1 157-165 analog, triple mutant (FVLMWITQV; UniProt P78358 157-165, looked up, variant S157F L158V C165V)
IFN-gamma production upon ex vivo re-stimulation, in words [7]: increased amounts of IFN-gamma

Compound: S157K L158V C165V: NY-ESO-1 157-165 analog, triple mutant (KVLMWITQV; UniProt P78358 157-165, looked up, variant S157K L158V C165V)
in vivo cytotoxicity (% specific lysis), in words [6]: effect in the same range with wild-type peptide or the C165V mutant

Compound: SNvaLMWITQV (S[Nva]LMWITQV) [Nyeso-1 157-165 (L158Nva, C165V))]
in vivo cytotoxicity (% specific lysis), in words [6]: substantial, constant cytotoxicity
IFN-gamma production upon ex vivo re-stimulation, in words [7]: large levels of IFN-gamma more rapidly

Compound: S{Nva}LQHLIG{Nle} (S[Nva]LQHLIG[Nle]) [Prame 425-433 (L426Nva, L433Nle)]
ex vivo cytotoxicity against A2+ PRAME+ 624.38 cells, in words ([9]; mouse, in vivo): cytotoxic immunity against a human tumor cell line; also recorded: significant cytotoxicity against human tumor cells expressing A2 (624.38)
ex vivo cytotoxicity against A2- 624.28 control cells, in words ([9]; negative control cells): no significant activity
affinity (ED50) / binding characteristics relative to native, in words (HLA-A*0201 [5]): similar, somewhat improved binding characteristics
IFN-γ production by splenocytes (ELISA), in words ([10]; listed as L426Nva L433Nle): greater response
IFN-γ production by splenocytes (ELISA), in words ([10]; listed as PRAME425-433 L426Nva L433Nle): significant enhancement of IFN-γ production
expansion of native epitope-specific T cells (tetramer), in words [11]: significantly higher than in mice primed with plasmid and boosted with the negative control peptide
in vivo cytotoxicity against native epitope, in words [12]: cytotoxic immunity against native epitope coated cells; also recorded: capable of expanding the immunity against the native epitope
IFN-γ production (cross-reactivity) relative to native, in words ([8]; PRAME425-433 analogs at approximately 0.3 μM): significant level of cross-reactivity

Compound: T{Nva}LQHLIG{Nle} (T[Nva]LQHLIG[Nle]) [S425T L426Nva L433Nle]
IFN-γ production by splenocytes (ELISA), in words [10]: ex vivo cytokine production
expansion of native epitope-specific T cells (tetramer), in words [11]: significantly higher than in mice primed with plasmid and boosted with the negative control peptide
in vivo cytotoxicity against native epitope, in words [12]: capable of expanding the immunity against the native epitope

Relative affinity (1/RA) (HLA-A*0201 [4]): 1.7
Compound: YASEKIFYV [SSX2 41-49 (K41Y)]
in vivo cytotoxicity (% specific lysis), in words [2]: increased activity relative to the natural peptide
Cross-reactivity and fct avidity (native to analogs)* [3]: 3

Compound: YMDGTMSQV [Tyrosinase 369-377, reference compound]
ex vivo cytotoxicity against 624.38 cells, in words (624.38 cells): robust cytotoxicity against 624.38 cells

Compound: YVDGTMSQNva (YVDGTMSQ[Nva]) [M370V V377Nva]
ex vivo cytotoxicity against 624.38 cells, in words (624.38 cells): robust cytotoxicity against 624.38 cells
